In patent US8906868B2, “Aminoglycoside derivatives” (Rempex Pharmaceuticals, Inc., priority 2010, dated 2014):
≈ marks a conversion by molar mass, not a printed value. Like-named read-outs stand apart in the source and are kept apart here.

Columns and labels:
[1] = tested on: Klebsiella pneumonia (ATCC 43816); assay: MIC, broth microdilution; conditions: Klebsiella pneumoniae, ATCC43816, read-out: Compound MIC on Bacterial Strains: K. pneumonia ATCC 43816
[2] = tested on: EC1001 acc(6′)-Ib; assay: microbe, parasite or virus in culture; type: cell-based, Escherichia coli; conditions: Escherichia coli; Table 4; read-out: Compound MIC on Bacterial Strains: Escherichia coli EC1001 acc(6′)-Ib
How it was run: (§1)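 CLSI broth microdilution in CaMHB; 2-fold serial dilutions; 5×10^5 CFU/ml final inoculum; 18 h, 35° C; OD600 turbidity plus visual check.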

[3] = tested on: ECM6007 aac(6′) + aph(2″); assay: microbe, parasite or virus in culture; type: cell-based, Escherichia coli; conditions: Escherichia coli, 18 h; Table 4; read-out: Compound MIC on Bacterial Strains: Escherichia coli ECM6007 aac(6′) + aph(2″)
How it was run: as §1

[4] = tested on: Sa 287 aac(6′) + aph(2″); assay: microbe, parasite or virus in culture; type: cell-based, Staphylococcus aureus; conditions: Staphylococcus aureus, 18 h; Table 5; read-out: Compound MIC on Bacterial Strains: Staphylococcus aureus Sa 287 aac(6′) + aph(2″)
Description: To compare microbiological activity of the test compounds, minimum inhibitory concentrations (MIC.s) were determined. Antibiotic MICs were obtained using the broth microdilution method according to Clinical and Laboratory Standards Institute (CLSI) approved guidelines (Methods for dilution antimicrobial susceptibility tests for bacteria that grow aerobically; approved standard—7th ed. CLSI document M7-A7. Clinical and Laboratory Standards Institute, Wayne, Pa., incorporated herein by reference in its entirety). Antibiotics were dissolved as specified by CLSI (Performance standards for antimicrobial susceptibility testing; Seventeenth informational supplement. CLSI document M100-S17. Clinical and Laboratory Standards Institute, Wayne, Pa., incorporated herein by reference in its entirety), and were serially diluted 2-fold in cation adjusted Mueller Hinton Broth (CaMHB) at 2× concentration. Bacterial inoculums were prepared in CaMHB by suspension of a colony from an agar plate that was prepared the previous day to obtain a final concentration of 5×10^5CFU/ml. The plates were incubated for 18 hours at 35° C. […] MIC.s were determined by reading the turbidity of plate wells using a SpectraMax Plus384 plate reader (Molecular Devices, Sunnyvale, Calif., USA) at 600 nm and were confirmed by visual inspection.

[5] = tested on: PAM3073 aac(6′)-I; assay: microbe, parasite or virus in culture; type: cell-based, Pseudomonas aeruginosa; conditions: Pseudomonas aeruginosa, Table 5; read-out: Compound MIC on Bacterial Strains: Pseudomonas aeruginosa PAM3073 aac(6′)-I
How it was run: as §1

[6] = tested on: PAM3072 aac(6′)-II; assay: microbe, parasite or virus in culture; type: cell-based, Pseudomonas aeruginosa; conditions: Pseudomonas aeruginosa, Table 5; read-out: Compound MIC on Bacterial Strains: Pseudomonas aeruginosa PAM3072 aac(6′)-II
How it was run: as §1

[7] = tested on: EC1002 aph(3′)-IV; assay: organism not typed; type: cell-based; conditions: read-out: Compound MIC on Bacterial Strains: EC1002 aph(3′)-IV
How it was run: (§2)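 CLSI broth microdilution; CaMHB; 2-fold dilutions; 5×10^5 CFU/ml; 18 h, 35° C; OD600 turbidity plus visual check for MIC.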

[8] = tested on: rats; assay: Nephrotoxicity of test compounds in rats; conditions: once daily subcutaneous
[9] = tested on: ACM1005 ATCC 19004; assay: MIC, broth microdilution; type: cell-based, Acinetobacter baumannii; conditions: Acinetobacter baumannii, ATCC19004; Table 4; read-out: Compound MIC on Bacterial Strains: Acinetobacter baumannii ACM1005 ATCC 19004
How it was run: as §1

[10] = tested on: ACM1006 acc(6′)-Ib; assay: microbe, parasite or virus in culture; type: cell-based, Acinetobacter baumannii; conditions: Acinetobacter baumannii; Table 4; read-out: Compound MIC on Bacterial Strains: Acinetobacter baumannii ACM1006 acc(6′)-Ib
How it was run: as §1

[11] = tested on: ECM6010 ant(2″)-I; assay: microbe, parasite or virus in culture; type: cell-based, Escherichia coli; conditions: Escherichia coli, read-out: Compound MIC on Bacterial Strains: ECM6010 ant(2″)-I
How it was run: as §2

[12] = tested on: ECM6009 aac(3)-II; assay: microbe, parasite or virus in culture; type: cell-based, Escherichia coli; conditions: Escherichia coli, read-out: Compound MIC on Bacterial Strains: ECM6009 aac(3)-II
How it was run: as §2

[13] = tested on: ECM6006 aph(3′)-III; assay: microbe, parasite or virus in culture; type: cell-based, Escherichia coli; conditions: Escherichia coli, read-out: Compound MIC on Bacterial Strains: ECM6006 aph(3′)-III
How it was run: as §2

[14] = tested on: ECM6011 aph(3′)-I; assay: microbe, parasite or virus in culture; type: cell-based, Escherichia coli; conditions: Escherichia coli, read-out: Compound MIC on Bacterial Strains: ECM6011 aph(3′)-I
How it was run: as §2

[15] = tested on: Acinetobacter baumannii (ATCC 19606); assay: MIC, broth microdilution; conditions: Acinetobacter baumannii, ATCC19606, read-out: Compound MIC on Bacterial Strains: A. baumannii ATCC 19606
[16] = tested on: Pseudomonas aeruginosa (ATCC 27853); assay: MIC, broth microdilution; conditions: Pseudomonas aeruginosa
[17] = tested on: Escherichia coli (ATCC 25922); assay: MIC, broth microdilution; conditions: Escherichia coli
[18] = tested on: ECM6003 rmtB; assay: microbe, parasite or virus in culture; type: cell-based, Escherichia coli; conditions: Escherichia coli; Table 3; read-out: Compound MIC on Bacterial Strains: ECM6003 rmtB
How it was run: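 Broth microdilution per CLSI M7-A7 in cation-adjusted Mueller Hinton broth with 2-fold serial dilutions and 5×10^5 CFU/ml inoculum. Incubated 18 hours at 35 °C; MIC read by turbidity at 600 nm and confirmed visually.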

[19] = tested on: Staphylococcus aureus (ATCC 29213); assay: MIC, broth microdilution; conditions: Staphylococcus aureus
[20] = ATCC27853, read-out: Compound MIC on Bacterial Strains: P. aeruginosa ATCC 27853
[21] = ATCC27853, read-out: Compound MIC on Bacterial Strains: Pseudomonas aeruginosa PAM3034 ATCC 27853
[22] = ATCC25922, read-out: Compound MIC on Bacterial Strains: E. coli ATCC 25922
[23] = ATCC25922, read-out: Compound MIC on Bacterial Strains: ECM6000 ATCC 25922
[24] = ATCC25922, read-out: Compound MIC on Bacterial Strains: Escherichia coli ECM6000 ATCC 25922
[25] = ATCC29213, read-out: Compound MIC on Bacterial Strains: S. aureus ATCC 29213, QC strain, Table 2
[26] = ATCC29213, read-out: Compound MIC on Bacterial Strains: Staphylococcus aureus SAM1000 ATCC 29213, Table 5

Structure (SMILES)	MIC [1]	MIC [2]	MIC [3]	MIC [4]	MIC [5]	MIC [6]	MIC [7]	Histopathology Results After 7 days of Dosing ([8]; 10 mg/kg/day)	Histopathology Results After 14 days of Dosing ([8]; 10 mg/kg/day)	Histopathology Results After 7 days of Dosing ([8]; 30 mg/kg/day)	Histopathology Results After 14 days of Dosing ([8]; 30 mg/kg/day)	Histopathology Results After 7 days of Dosing ([8]; 100 mg/kg/day)	Histopathology Results After 14 days of Dosing ([8]; 100 mg/kg/day)	MIC [9]	MIC [10]	MIC [11]	MIC [12]	MIC [13]	MIC [14]	MIC [15]	also measured
CN[C@@H]1[C@@H](O)[C@@H](O[C@@H]2[C@@H](O)[C@H](O[C@H]3O[C@H](CNCCO)CC[C@H]3N)[C@@H](N)C[C@H]2NC(=O)[C@@H](O)CCN)OC[C@]1(C)O [Compound 1, (2S)-4-amino-N-((1R,2S,3S,4R,5S)-5-amino-4-((2R,3R,6S)-3-amino-6-((2-hydroxyethylamino)methyl)tetrahydro-2H-pyran-2-yloxy)-2-((2R,3R,5R)-3,5-dihydroxy-5-methyl-4-(methylamino)tetrahydro-2H-pyran-2-yloxy)-3-hydroxycyclohexyl)-2-hydroxybutanamide]	< 1 µg/mL	< 1 µg/mL	< 1 µg/mL	1 to 8 µg/mL	1 to 8 µg/mL (≈ 1.68 to 13.5 µM)	> 8 µg/mL	< 1 µg/mL	No Change	No Change	Mild Nephrosis	Moderate to Severe Nephrosis	Severe Nephrosis	4/4 Died	< 1 µg/mL	< 1 µg/mL	< 1 µg/mL	< 1 µg/mL	1 to 8 µg/mL (≈ 1.68 to 13.5 µM)	< 1 µg/mL	> 8 µg/mL	MIC [16, 20]: 1 to 8 µg/mL (≈ 1.68 to 13.5 µM); MIC [16, 21]: 1 to 8 µg/mL (≈ 1.68 to 13.5 µM); MIC [17, 22]: < 1 µg/mL; MIC [17, 23]: < 1 µg/mL; MIC [17, 24]: < 1 µg/mL; MIC [18]: > 8 µg/mL; MIC [19, 25]: < 1 µg/mL; MIC [19, 26]: < 1 µg/mL
CN[C@@H]1[C@@H](O)[C@@H](O[C@@H]2[C@@H](O)[C@H](O[C@H]3O[C@H](CNCCO)CC[C@H]3N)[C@@H](N)C[C@H]2NC(=O)[C@@H](O)CN)OC[C@]1(C)O [Compound 2, (S)-3-amino-N-((1R,2S,3S,4R,5S)-5-amino-4-((2R,3R,6S)-3-amino-6-((2-hydroxyethylamino)methyl)tetrahydro-2H-pyran-2-yloxy)-2-((2R,3R,4R,5R)-3,5-dihydroxy-5-methyl-4-(methylamino)tetrahydro-2H-pyran-2-yloxy)-3-hydroxycyclohexyl)-2-hydroxypropanamide]	< 1 µg/mL	< 1 µg/mL	< 1 µg/mL	< 1 µg/mL	1 to 8 µg/mL (≈ 1.72 to 13.8 µM)	> 8 µg/mL	1 to 8 µg/mL (≈ 1.72 to 13.8 µM)	Minimal Tubular Eosinophilia;	No change	Minimal Tubular Eosinophilia;	Minimal to Mild Dilatation	Mild Tubular Eosinophila	No Deaths; Moderate to Severe	1 to 8 µg/mL (≈ 1.72 to 13.8 µM)	1 to 8 µg/mL (≈ 1.72 to 13.8 µM)	< 1 µg/mL	< 1 µg/mL	< 1 µg/mL	< 1 µg/mL	> 8 µg/mL	MIC [16, 20]: 1 to 8 µg/mL (≈ 1.72 to 13.8 µM); MIC [16, 21]: 1 to 8 µg/mL (≈ 1.72 to 13.8 µM); MIC [17, 22]: < 1 µg/mL; MIC [17, 23]: < 1 µg/mL; MIC [17, 24]: < 1 µg/mL; MIC [18]: > 8 µg/mL; MIC [19, 25]: < 1 µg/mL; MIC [19, 26]: < 1 µg/mL
